Key:
[1] = molecular target: T1, 5-hydroxytryptamine receptor 3A (Homo sapiens) (UniProt P46098); test: Displacement of [3H]LY278584 from 5HT3 receptor (unknown origin) at 10 uM
T1 sequence (whole entry): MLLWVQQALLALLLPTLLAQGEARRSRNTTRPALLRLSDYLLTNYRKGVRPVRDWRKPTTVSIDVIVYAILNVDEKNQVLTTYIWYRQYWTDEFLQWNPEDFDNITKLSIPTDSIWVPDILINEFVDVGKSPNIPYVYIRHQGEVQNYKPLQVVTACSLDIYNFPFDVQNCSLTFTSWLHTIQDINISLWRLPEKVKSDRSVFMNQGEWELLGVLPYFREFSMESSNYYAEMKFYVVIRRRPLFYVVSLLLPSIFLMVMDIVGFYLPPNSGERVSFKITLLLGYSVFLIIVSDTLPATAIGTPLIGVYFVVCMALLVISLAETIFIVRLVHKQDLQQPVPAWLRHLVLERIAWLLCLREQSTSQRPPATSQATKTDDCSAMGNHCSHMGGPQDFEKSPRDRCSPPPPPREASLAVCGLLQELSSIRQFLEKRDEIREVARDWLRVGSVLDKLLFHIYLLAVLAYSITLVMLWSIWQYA

[2] = molecular target: 5-hydroxytryptamine receptor 1E (Homo sapiens) (UniProt P28566); test: Displacement of [3H]5HT from 5HT1E receptor (unknown origin) at 10 uM
[3] = molecular target: T2, 5-hydroxytryptamine receptor 1A (Homo sapiens) (UniProt P08908); test: Displacement of [3H]-8-OH-DPAT from 5HT1A receptor (unknown origin) at 10 uM
T2 sequence (whole entry): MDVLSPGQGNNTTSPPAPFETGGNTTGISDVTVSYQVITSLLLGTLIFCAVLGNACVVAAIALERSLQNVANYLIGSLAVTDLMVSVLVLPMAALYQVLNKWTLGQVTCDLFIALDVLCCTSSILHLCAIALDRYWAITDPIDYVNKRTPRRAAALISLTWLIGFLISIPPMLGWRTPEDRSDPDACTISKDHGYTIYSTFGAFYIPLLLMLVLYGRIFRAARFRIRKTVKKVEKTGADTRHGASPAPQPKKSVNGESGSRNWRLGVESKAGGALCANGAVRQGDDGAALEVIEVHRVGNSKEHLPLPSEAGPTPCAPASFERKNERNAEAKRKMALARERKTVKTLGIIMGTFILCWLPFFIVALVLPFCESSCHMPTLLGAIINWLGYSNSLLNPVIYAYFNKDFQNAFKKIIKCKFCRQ

[4] = molecular target: T3, 5-hydroxytryptamine receptor 2B (Homo sapiens, UniProt P41595); test: Displacement of [3H]LSD from 5HT2B receptor (unknown origin)
[5] = molecular target: T3, 5-hydroxytryptamine receptor 2B; test: Displacement of [3H]LSD from 5HT2B receptor (unknown origin) at 10 uM
[6] = molecular target: T4, 5-hydroxytryptamine receptor 1B (Homo sapiens, UniProt P28222); test: Displacement of [3H]GR125743 from 5HT1B receptor (unknown origin) at 10 uM
[7] = molecular target: 5-hydroxytryptamine receptor 7 (Homo sapiens) (UniProt P34969); test: Displacement of [3H]LSD from 5HT7 receptor (unknown origin) at 10 uM
[8] = molecular target: 5-hydroxytryptamine receptor 2A (Homo sapiens) (UniProt P28223); test: Displacement of [3H]ketanserin from 5HT2A receptor (unknown origin) at 10 uM
[9] = molecular target: 5-hydroxytryptamine receptor 1D (Homo sapiens) (UniProt P28221); test: Displacement of [3H]GR125743 from 5HT1D receptor (unknown origin) at 10 uM
[10] = molecular target: T5, 5-hydroxytryptamine receptor 2C (Homo sapiens) (UniProt P28335); test: Displacement of [3H]mesulergine from 5HT2C receptor (unknown origin) at 10 uM
T5 sequence (whole entry): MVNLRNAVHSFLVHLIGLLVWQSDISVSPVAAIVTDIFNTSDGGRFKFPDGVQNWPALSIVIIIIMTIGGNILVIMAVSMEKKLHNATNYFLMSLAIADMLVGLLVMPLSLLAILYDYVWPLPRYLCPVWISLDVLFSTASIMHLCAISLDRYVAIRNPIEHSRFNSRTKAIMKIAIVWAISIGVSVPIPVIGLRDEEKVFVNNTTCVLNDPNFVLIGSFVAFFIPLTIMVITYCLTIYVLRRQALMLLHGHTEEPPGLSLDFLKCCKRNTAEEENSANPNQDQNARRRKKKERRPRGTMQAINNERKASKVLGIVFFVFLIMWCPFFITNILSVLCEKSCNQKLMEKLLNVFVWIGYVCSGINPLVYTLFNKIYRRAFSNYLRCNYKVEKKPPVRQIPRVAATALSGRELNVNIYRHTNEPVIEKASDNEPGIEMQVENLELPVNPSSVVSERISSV

[11] = molecular target: 5-hydroxytryptamine receptor 5A (Homo sapiens) (UniProt P47898); test: Displacement of [3H]LSD from 5HT5A receptor (unknown origin) at 10 uM
[12] = molecular target: T4, 5-hydroxytryptamine receptor 1B; test: Displacement of [3H]GR125743 from 5HT1B receptor (unknown origin)

T4 sequence (P28222 whole entry): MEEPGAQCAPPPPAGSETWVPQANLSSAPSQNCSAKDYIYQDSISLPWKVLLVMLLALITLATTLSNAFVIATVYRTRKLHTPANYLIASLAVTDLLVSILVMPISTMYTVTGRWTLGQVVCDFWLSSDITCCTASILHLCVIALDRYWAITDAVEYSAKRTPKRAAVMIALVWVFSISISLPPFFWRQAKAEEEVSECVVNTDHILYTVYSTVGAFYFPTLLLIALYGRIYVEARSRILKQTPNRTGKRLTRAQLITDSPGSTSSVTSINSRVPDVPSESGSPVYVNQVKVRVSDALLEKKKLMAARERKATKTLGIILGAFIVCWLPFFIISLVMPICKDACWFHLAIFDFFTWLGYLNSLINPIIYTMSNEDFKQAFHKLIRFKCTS
Sequence of 5-hydroxytryptamine receptor 2A (Homo sapiens) (P28223 whole entry): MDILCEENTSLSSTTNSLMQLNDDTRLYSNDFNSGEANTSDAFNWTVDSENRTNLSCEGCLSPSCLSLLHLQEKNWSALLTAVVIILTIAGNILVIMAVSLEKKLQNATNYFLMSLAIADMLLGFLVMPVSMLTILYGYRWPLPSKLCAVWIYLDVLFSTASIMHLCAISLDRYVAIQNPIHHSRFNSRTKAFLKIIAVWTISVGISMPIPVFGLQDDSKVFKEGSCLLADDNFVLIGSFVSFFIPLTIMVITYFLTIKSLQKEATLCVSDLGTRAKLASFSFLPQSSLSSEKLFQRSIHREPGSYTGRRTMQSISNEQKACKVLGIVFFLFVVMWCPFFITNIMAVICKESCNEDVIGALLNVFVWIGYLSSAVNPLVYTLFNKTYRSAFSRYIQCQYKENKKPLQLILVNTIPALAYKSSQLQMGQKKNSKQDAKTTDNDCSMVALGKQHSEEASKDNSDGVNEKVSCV
Sequence of 5-hydroxytryptamine receptor 1E (Homo sapiens) (P28566 whole entry): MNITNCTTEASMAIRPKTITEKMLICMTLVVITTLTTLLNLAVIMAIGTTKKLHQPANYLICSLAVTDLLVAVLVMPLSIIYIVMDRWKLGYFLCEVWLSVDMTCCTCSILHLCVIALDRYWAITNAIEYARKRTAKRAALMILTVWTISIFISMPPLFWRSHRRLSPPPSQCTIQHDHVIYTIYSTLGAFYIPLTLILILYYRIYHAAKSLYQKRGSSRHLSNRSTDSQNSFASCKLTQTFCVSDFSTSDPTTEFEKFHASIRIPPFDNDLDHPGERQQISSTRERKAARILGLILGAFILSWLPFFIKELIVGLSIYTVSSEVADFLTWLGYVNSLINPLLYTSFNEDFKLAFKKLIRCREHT
Sequence of 5-hydroxytryptamine receptor 1D (Homo sapiens) (P28221 whole entry): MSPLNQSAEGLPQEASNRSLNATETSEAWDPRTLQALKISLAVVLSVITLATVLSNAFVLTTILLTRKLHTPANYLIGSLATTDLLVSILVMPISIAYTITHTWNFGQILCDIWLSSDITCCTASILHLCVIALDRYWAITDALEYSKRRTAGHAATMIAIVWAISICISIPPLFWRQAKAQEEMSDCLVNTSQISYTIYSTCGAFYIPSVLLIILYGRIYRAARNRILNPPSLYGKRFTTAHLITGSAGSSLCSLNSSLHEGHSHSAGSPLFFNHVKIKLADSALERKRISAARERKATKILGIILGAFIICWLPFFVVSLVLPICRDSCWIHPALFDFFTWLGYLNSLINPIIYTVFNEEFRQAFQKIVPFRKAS
Sequence of 5-hydroxytryptamine receptor 7 (Homo sapiens) (P34969 whole entry): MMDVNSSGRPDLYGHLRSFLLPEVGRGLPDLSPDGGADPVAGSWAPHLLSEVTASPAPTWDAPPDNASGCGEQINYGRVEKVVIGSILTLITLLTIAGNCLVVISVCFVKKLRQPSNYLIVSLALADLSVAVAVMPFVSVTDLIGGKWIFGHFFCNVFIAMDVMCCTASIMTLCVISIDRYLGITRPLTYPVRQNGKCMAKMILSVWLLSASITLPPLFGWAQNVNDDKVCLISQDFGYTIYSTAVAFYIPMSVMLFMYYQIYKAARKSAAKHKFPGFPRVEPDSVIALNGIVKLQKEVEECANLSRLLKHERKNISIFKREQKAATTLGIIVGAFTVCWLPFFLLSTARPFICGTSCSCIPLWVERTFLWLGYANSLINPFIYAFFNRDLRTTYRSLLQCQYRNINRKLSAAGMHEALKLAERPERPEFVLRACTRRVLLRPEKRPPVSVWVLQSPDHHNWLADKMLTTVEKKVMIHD
T3 sequence (P41595 whole entry): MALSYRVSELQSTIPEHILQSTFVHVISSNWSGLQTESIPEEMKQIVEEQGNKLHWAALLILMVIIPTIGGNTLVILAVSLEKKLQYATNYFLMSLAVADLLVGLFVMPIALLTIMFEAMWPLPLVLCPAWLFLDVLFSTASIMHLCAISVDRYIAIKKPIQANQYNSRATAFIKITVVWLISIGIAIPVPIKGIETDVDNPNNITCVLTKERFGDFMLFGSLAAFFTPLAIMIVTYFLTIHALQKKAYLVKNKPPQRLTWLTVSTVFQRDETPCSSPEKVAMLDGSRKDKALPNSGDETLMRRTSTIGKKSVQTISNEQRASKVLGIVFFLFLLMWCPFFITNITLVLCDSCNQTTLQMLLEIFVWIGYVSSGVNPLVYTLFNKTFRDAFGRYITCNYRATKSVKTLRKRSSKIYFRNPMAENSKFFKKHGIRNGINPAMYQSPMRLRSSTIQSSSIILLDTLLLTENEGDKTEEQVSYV
Sequence of 5-hydroxytryptamine receptor 5A (Homo sapiens) (P47898 whole entry): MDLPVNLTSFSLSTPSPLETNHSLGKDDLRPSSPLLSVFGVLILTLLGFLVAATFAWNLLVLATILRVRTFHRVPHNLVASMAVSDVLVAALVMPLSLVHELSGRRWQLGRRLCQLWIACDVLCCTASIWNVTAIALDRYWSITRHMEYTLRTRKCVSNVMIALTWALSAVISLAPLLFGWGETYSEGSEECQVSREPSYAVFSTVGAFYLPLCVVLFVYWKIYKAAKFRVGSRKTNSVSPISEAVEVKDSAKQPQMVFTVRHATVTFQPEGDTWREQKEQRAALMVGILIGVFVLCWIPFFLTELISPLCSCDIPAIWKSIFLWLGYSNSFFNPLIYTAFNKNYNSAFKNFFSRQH

Row | inhibition [1] [%] | inhibition [2] [%] | inhibition [3] [%] | Ki [4] [nM] | inhibition [5] [%] | inhibition [6] [%] | inhibition [7] [%] | inhibition [8] [%] | inhibition [9] [%] | inhibition [10] [%] | inhibition [11] [%] | Compound | Ki [12] [nM]
1 | 11.6 | 7.3 | 18.4 | 601 | 76.1 | 41.4 | -5.1 | 40.9 | 24 | 48 | 17.6 | CCCCOc1c(OC)cc2c3c1-c1cc4c(cc1CC3N(C)CC2c1ccccc1)OCO4 (stereo not given) | –
2 | 8.3 | 3.3 | 19.2 | 416 | 72.1 | 19.4 | 24.7 | 47.8 | 22.6 | 28.8 | -9.8 | C=CCOc1c(OC)cc2c3c1-c1cc4c(cc1CC3N(C)CC2c1ccccc1)OCO4 (stereo not given) | –
3 | -7.4 | -0.1 | 25.9 | – | 24.4 | 2.1 | – | 15.8 | 9.8 | -6.6 | -9.3 | COc1cc2c3c(c1OCc1ccc(Br)cc1)-c1cc4c(cc1CC3N(C)CC2c1ccccc1)OCO4 (stereo not given) | –
4 | 0.7 | 2.1 | 27 | 307 | 84 | 51.7 | 8.6 | 32.3 | 22.4 | 13.1 | 5.2 | CCCOc1c(OC)cc2c3c1-c1cc4c(cc1CC3N(C)CC2c1ccccc1)OCO4 (stereo not given) | 1610
5 | -2.7 | 10.3 | -0.9 | 209 | 83.3 | 20.6 | 26 | 40.1 | 29.7 | 13.5 | -7.6 | CCOc1c(OC)cc2c3c1-c1cc4c(cc1CC3N(C)CC2c1ccccc1)OCO4 (stereo not given) | –
6 | 4.1 | 11 | 24.2 | 715 | 50.3 | -5.2 | 31.3 | 29.2 | 15.8 | -2.3 | 1.8 | COc1cc2c3c(c1O)-c1cc4c(cc1CC3N(C)CC2c1ccccc1)OCO4 (stereo not given) | –

The next lines start with the molecule.

Row | Compound | inhibition [1] [%] | inhibition [2] [%] | inhibition [3] [%] | Ki [4] [nM] | inhibition [5] [%] | inhibition [6] [%] | inhibition [7] [%] | inhibition [8] [%] | inhibition [9] [%] | inhibition [10] [%] | inhibition [11] [%] | Ki [12] [nM]
7 | CCN1CC(c2ccccc2)c2cc(OC)c(OC)c3c2C1Cc1cc2c(cc1-3)OCO2 (stereo not given) | -4.1 | 5 | 3.3 | 419 | 88.4 | 23.6 | 8.9 | 12.8 | 27.4 | -1.6 | – | –
8 | CCCCCCOc1c(OC)cc2c3c1-c1cc4c(cc1CC3N(C)CC2c1ccccc1)OCO4 (stereo not given) | 0.8 | 2.4 | – | 663 | 63.6 | 4.3 | – | 19.9 | 13.4 | 49.3 | -6.2 | –
9 | COc1cc2c3c(c1OC)-c1cc4c(cc1CC3N(CC1CC1)CC2c1ccccc1)OCO4 (stereo not given) | – | 3.5 | 13.3 | 1430 | 73.7 | 16.2 | 18.3 | 9.6 | 22.4 | 9.4 | – | –
10 | COc1cc2c3c(c1OCC1CC1)-c1cc4c(cc1CC3N(C)CC2c1ccccc1)OCO4 (stereo not given) | 7.7 | 27.4 | -9.8 | 299 | 77.1 | 60.2 | 6.9 | 42.9 | 31.9 | 32.4 | 5.2 | 2470

— ChEMBL document CHEMBL3608284, “C4 phenyl aporphines with selective h5-HT(2B) receptor affinity” (Bioorg Med Chem Lett, 2015)
